This is an account of results in patent US10004701B2, “Methods and compositions for treating infection” (UNIVERSITY OF ROCHESTER, priority 2012, dated 2018).

SMILES strings stand for the structures. Where a name gives a salt, the structure may show the parent alone. Read-outs that look alike come from different tables or passages of the source.

What all share (assay): AK assay 384-well format, Prestwick library screening
Experiment [1] concerns S. aureus strain USA300-0114. It counts as cell-based, Staphylococcus aureus. The following applies: 50 μM final drug concentration; for fold induction at 50 µM: Staphylococcus aureus, USA300, 3 h.
The test system of the next experiment is E. coli. The experiment is classed as cell-based, Escherichia coli. The conditions noted are these: 50 μM final drug concentration; for fold induction at 50 µM: Escherichia coli, 3 h.
The test system of a further experiment is E. faecium. The experiment is classed as cell-based, Enterococcus faecium. The following applies: 50 μM final drug concentration; for fold induction at 50 µM: Enterococcus faecium, 3 h.
Experiment [2] has as its system A. baumannii strain 98-37-09. The experiment is classed as cell-based, Acinetobacter baumannii. The conditions noted are these: 50 μM final drug concentration; for fold induction at 50 µM: Acinetobacter baumannii, 983709, 3 h.
The next experiment deals with K. pneumoniae. The experiment is classed as cell-based, Klebsiella pneumoniae. The conditions noted are these: 50 μM final drug concentration; for fold induction at 50 µM: Klebsiella pneumoniae, 3 h.
For a further experiment, the system named is E. cloacae. It counts as cell-based, Enterobacter cloacae. The conditions noted are these: 50 μM final drug concentration; for fold induction at 50 µM: Enterobacter cloacae, 3 h.
A further experiment has as its system P. aeruginosa. It counts as cell-based, Pseudomonas aeruginosa. The following applies: 50 μM final drug concentration; for fold induction at 50 µM: Pseudomonas aeruginosa, 3 h.
The mark [3] stands for this setting: planktonic S. aureus, cutoff for positive-scoring molecules 3-fold increase, read-out: AK-based Prestwick Library Screening Results, S. aureus (increase in extracellular AK activity).
[4] abbreviates: planktonic E. coli, cutoff for positive-scoring molecules 3-fold increase, read-out: AK-based Prestwick Library Screening Results, E. coli (increase in extracellular AK activity).
Setting [5] is: planktonic E. faecium, cutoff for positive-scoring molecules 3-fold increase, read-out: AK-based Prestwick Library Screening Results, E. faecium (increase in extracellular AK activity).
[6] abbreviates: planktonic A. baumannii, cutoff for positive-scoring molecules 3-fold increase, read-out: AK-based Prestwick Library Screening Results, A. baumannii (increase in extracellular AK activity).
Setting [7] is: planktonic K. pneumoniae, cutoff for positive-scoring molecules 3-fold increase, read-out: AK-based Prestwick Library Screening Results, K. pneumoniae (increase in extracellular AK activity).
The mark [8] stands for this setting: planktonic E. cloacae, cutoff for positive-scoring molecules 3-fold increase, read-out: AK-based Prestwick Library Screening Results, E. cloacae (increase in extracellular AK activity).
[9] abbreviates: planktonic P. aeruginosa, cutoff for positive-scoring molecules 3-fold increase, read-out: AK-based Prestwick Library Screening Results, P. aeruginosa (increase in extracellular AK activity).
Setting [10] is: planktonic S. aureus, positive cutoff 3-fold increase, read-out: AK-based Prestwick library screening result, S. aureus (fold increase in extracellular AK activity).
[11] abbreviates: planktonic E. coli, positive cutoff 3-fold increase, read-out: AK-based Prestwick library screening result, E. coli (fold increase in extracellular AK activity).
Setting [12] is: planktonic E. faecium, positive cutoff 3-fold increase, read-out: AK-based Prestwick library screening result, E. faecium (fold increase in extracellular AK activity).
Setting [13] is: planktonic A. baumannii, positive cutoff 3-fold increase, read-out: AK-based Prestwick library screening result, A. baumannii (fold increase in extracellular AK activity).
Where [14] appears, read: planktonic K. pneumoniae, positive cutoff 3-fold increase, read-out: AK-based Prestwick library screening result, K. pneumoniae (fold increase in extracellular AK activity).
Setting [15] is: planktonic E. cloacae, positive cutoff 3-fold increase, read-out: AK-based Prestwick library screening result, E. cloacae (fold increase in extracellular AK activity).
Where [16] appears, read: planktonic P. aeruginosa, positive cutoff 3-fold increase, read-out: AK-based Prestwick library screening result, P. aeruginosa (fold increase in extracellular AK activity).
The mark [17] stands for this setting: planktonic, cutoff for positive-scoring molecules 3-fold increase, read-out: AK-based Prestwick Library Screening Results, S. aureus (fold increase in extracellular AK activity).
[18] abbreviates: planktonic, cutoff for positive-scoring molecules 3-fold increase, read-out: AK-based Prestwick Library Screening Results, E. coli (fold increase in extracellular AK activity).
[19] abbreviates: planktonic, cutoff for positive-scoring molecules 3-fold increase, read-out: AK-based Prestwick Library Screening Results, E. faecium (fold increase in extracellular AK activity).
The mark [20] stands for this setting: planktonic, cutoff for positive-scoring molecules 3-fold increase, read-out: AK-based Prestwick Library Screening Results, A. baumannii (fold increase in extracellular AK activity).
[21] abbreviates: planktonic, cutoff for positive-scoring molecules 3-fold increase, read-out: AK-based Prestwick Library Screening Results, K. pneumoniae (fold increase in extracellular AK activity).
[22] abbreviates: planktonic, cutoff for positive-scoring molecules 3-fold increase, read-out: AK-based Prestwick Library Screening Results, E. cloacae (fold increase in extracellular AK activity).
[23] abbreviates: planktonic, cutoff for positive-scoring molecules 3-fold increase, read-out: AK-based Prestwick Library Screening Results, P. aeruginosa (fold increase in extracellular AK activity).

As to `CCCC(C)(COC(N)=O)COC(=O)NC(C)C` (stereo not shown) [Carisoprodol], the fold induction at 50 µM amounted to 0.7 in experiment [1] (planktonic S. aureus, […], read-out: AK-based Prestwick Library Screening Results, S. aureus (increase in extracellular AK activity)); 0.9 with E. coli (planktonic E. coli, […], read-out: AK-based Prestwick Library Screening Results, E. coli (increase in extracellular AK activity)); 0.9 in the experiment with E. faecium (planktonic E. faecium, […], read-out: AK-based Prestwick Library Screening Results, E. faecium (increase in extracellular AK activity)); 0.8 in experiment [2] (planktonic A. baumannii, […], read-out: AK-based Prestwick Library Screening Results, A. baumannii (increase in extracellular AK activity)); 0.6 with K. pneumoniae (planktonic K. pneumoniae, […], read-out: AK-based Prestwick Library Screening Results, K. pneumoniae (increase in extracellular AK activity)); 0.8 with E. cloacae (planktonic E. cloacae, […], read-out: AK-based Prestwick Library Screening Results, E. cloacae (increase in extracellular AK activity)). Further, the fold induction at 50 µM in the experiment with P. aeruginosa (planktonic P. aeruginosa, […], read-out: AK-based Prestwick Library Screening Results, P. aeruginosa (increase in extracellular AK activity)) was found to be 0.9.

On to `CC(C)(C)NCC(O)COc1cccc2c1CCC(=O)N2` (stereo not shown) [Carteolol hydrochloride], for which the fold induction at 50 µM is 1.1 in experiment [1] (setting [3]); 1.2 in the experiment on E. coli (setting [4]); 1 in the experiment on E. faecium (setting [5]); 1 in experiment [2] (setting [6]); 0.8 with K. pneumoniae (setting [7]); 1.1 in the experiment on E. cloacae (setting [8]). In addition, the fold induction at 50 µM in the experiment on P. aeruginosa (setting [9]) is 1.1.

As to `CCC1=C[C@@H]2CN3CCc4c([nH]c5ccccc45)[C@@](C(=O)OC)(C2)[C@@H]13` [Catharanthine], the “AK-based Prestwick Library Screening Results, S. aureus (increase in extracellular AK activity)” value in experiment [1] (384-well format, […]) is 0.8. Further, in the experiment with E. coli (384-well format, […]), the “AK-based Prestwick Library Screening Results, E. coli (increase in extracellular AK activity)” value is given as 1.0. In the experiment with E. faecium (384-well format, […]), the “AK-based Prestwick Library Screening Results, E. faecium (increase in extracellular AK activity)” value is on record as 1.0. In addition, the “AK-based Prestwick Library Screening Results, A. baumannii (increase in extracellular AK activity)” value in experiment [2] (384-well format, […]) is listed as 0.8. The “AK-based Prestwick Library Screening Results, K. pneumoniae (increase in extracellular AK activity)” value with K. pneumoniae (384-well format, […]) is listed as 0.8. For the same molecule, in the experiment on E. cloacae (384-well format, […]), the “AK-based Prestwick Library Screening Results, E. cloacae (increase in extracellular AK activity)” value is recorded as 1.0. Also, the “AK-based Prestwick Library Screening Results, P. aeruginosa (increase in extracellular AK activity)” value in the experiment on P. aeruginosa (384-well format, […]) was 0.7.

With `N[C@@H](C(=O)N[C@@H]1C(=O)N2C(C(=O)O)=C(Cl)CS[C@H]12)c1ccccc1` [Cefaclor], the fold induction at 50 µM in experiment [1] (setting [3]) was 0.5; in the experiment on E. coli (setting [4]) it was 10.7; with E. faecium (setting [5]) it was 0.9; in experiment [2] (setting [6]) it was 1.5; in the experiment with K. pneumoniae (setting [7]), 2.5; with E. cloacae (setting [8]), 0.7. In addition, in the experiment with P. aeruginosa (setting [9]), the fold induction at 50 µM worked out at 0.5.

Regarding `CC1=C(C(=O)O)N2C(=O)[C@@H](NC(=O)[C@H](N)c3ccc(O)cc3)[C@H]2SC1` [Cefadroxil], the fold induction at 50 µM in experiment [1] (setting [3]) worked out at 0.5; with E. coli (setting [4]), 0.9; with E. faecium (setting [5]) it was 0.8; in experiment [2] (setting [6]), 0.9; in the experiment on K. pneumoniae (setting [7]), 0.8; in the experiment on E. cloacae (setting [8]), 1.2. For the same molecule, in the experiment with P. aeruginosa (setting [9]), the fold induction at 50 µM stood at 0.8.

Consider `NC(=O)c1cc[n+](CC2=C(C(=O)[O-])N3C(=O)[C@@H](NC(=O)Cc4cccs4)[C@H]3SC2)cc1` [Cefalonium], for which the fold induction at 50 µM in experiment [1] (setting [10]) stood at 1.6; in the experiment on E. coli (setting [11]), 16.6; with E. faecium (setting [12]), 0.9; in experiment [2] (setting [13]), 1.5; with K. pneumoniae (setting [14]), 3.8; in the experiment with E. cloacae (setting [15]), 1.4. Also, the fold induction at 50 µM with P. aeruginosa (setting [16]) is 0.8.

On to `Cn1nnnc1SCC1=C(C(=O)O)N2C(=O)[C@@H](NC(=O)[C@H](O)c3ccccc3)[C@H]2SC1` [Cefamandole sodium salt], for which the fold induction at 50 µM was 1.3 in experiment [1] (setting [17]); 10.5 in the experiment with E. coli (setting [18]); 0.9 with E. faecium (setting [19]); 0.6 in experiment [2] (setting [20]); 2.3 in the experiment with K. pneumoniae (setting [21]); 0.9 in the experiment with E. cloacae (setting [22]). For the same molecule, the fold induction at 50 µM in the experiment with P. aeruginosa (setting [23]) worked out at 0.7.

With `Cc1nnc(SCC2=C(C(=O)O)N3C(=O)[C@@H](NC(=O)Cn4cnnn4)[C@H]3SC2)s1` [Cefazolin sodium salt], the fold induction at 50 µM was 3.1 in experiment [1] (setting [17]); 16.5 in the experiment with E. coli (setting [18]); 0.9 in the experiment on E. faecium (setting [19]); 0.5 in experiment [2] (setting [20]); 3.6 in the experiment with K. pneumoniae (setting [21]); 0.9 with E. cloacae (setting [22]). The fold induction at 50 µM in the experiment with P. aeruginosa (setting [23]) stood at 0.7.

As to `CO/N=C(\C(=O)N[C@@H]1C(=O)N2C(C(=O)O)=C(C[N+]3(C)CCCC3)CS[C@H]12)c1csc(N)n1` [Cefepime hydrochloride], the fold induction at 50 µM stood at 3.1 in experiment [1] (setting [10]); 19.3 in the experiment on E. coli (setting [11]); 1 in the experiment on E. faecium (setting [12]); 3.4 in experiment [2] (setting [13]); 4.9 in the experiment with K. pneumoniae (setting [14]); 1.9 in the experiment with E. cloacae (setting [15]). Also, the fold induction at 50 µM in the experiment on P. aeruginosa (setting [16]) amounted to 15.6.

As to `C=CC1=C(C(=O)O)N2C(=O)[C@@H](NC(=O)/C(=N\OCC(=O)O)c3csc(N)n3)[C@H]2SC1` [Cefixime], the fold induction at 50 µM stood at 1.2 in experiment [1] (planktonic, cutoff for positive 3-fold increase, read-out: AK-based Prestwick Library Screening Results, S. aureus (fold increase in extracellular AK activity)); 18.6 with E. coli (planktonic, cutoff for positive 3-fold increase, read-out: AK-based Prestwick Library Screening Results, E. coli (fold increase in extracellular AK activity)); 1.1 in the experiment on E. faecium (planktonic, cutoff for positive 3-fold increase, read-out: AK-based Prestwick Library Screening Results, E. faecium (fold increase in extracellular AK activity)); 1.8 in experiment [2] (planktonic, cutoff for positive 3-fold increase, read-out: AK-based Prestwick Library Screening Results, A. baumannii (fold increase in extracellular AK activity)); 4.6 in the experiment on K. pneumoniae (planktonic, cutoff for positive 3-fold increase, read-out: AK-based Prestwick Library Screening Results, K. pneumoniae (fold increase in extracellular AK activity)); 21.9 in the experiment on E. cloacae (planktonic, cutoff for positive 3-fold increase, read-out: AK-based Prestwick Library Screening Results, E. cloacae (fold increase in extracellular AK activity)). For the same molecule, the fold induction at 50 µM with P. aeruginosa (planktonic, cutoff for positive 3-fold increase, read-out: AK-based Prestwick Library Screening Results, P. aeruginosa (fold increase in extracellular AK activity)) was found to be 11.7.
